According to patent publication US12435080B2, “sGC stimulators” (Tisento Therapeutics Inc., priority 2016, dated 2025):
Values joined by “and” are separate entries in the source; they are usually repeats but may differ in a detail not shown here. Equal values may be shown once.

Biological target: T1, sGC enzyme (Homo sapiens, UniProt Q02108+Q02153)
T1 construct: incorporated into these cells detect cGMP formed by the compounds stimulating the sGC enzyme; host or cells: HEK293 cells stably expressing GloSensor 40F cGMP biosensor
T1 sequence (Q02153 1-619): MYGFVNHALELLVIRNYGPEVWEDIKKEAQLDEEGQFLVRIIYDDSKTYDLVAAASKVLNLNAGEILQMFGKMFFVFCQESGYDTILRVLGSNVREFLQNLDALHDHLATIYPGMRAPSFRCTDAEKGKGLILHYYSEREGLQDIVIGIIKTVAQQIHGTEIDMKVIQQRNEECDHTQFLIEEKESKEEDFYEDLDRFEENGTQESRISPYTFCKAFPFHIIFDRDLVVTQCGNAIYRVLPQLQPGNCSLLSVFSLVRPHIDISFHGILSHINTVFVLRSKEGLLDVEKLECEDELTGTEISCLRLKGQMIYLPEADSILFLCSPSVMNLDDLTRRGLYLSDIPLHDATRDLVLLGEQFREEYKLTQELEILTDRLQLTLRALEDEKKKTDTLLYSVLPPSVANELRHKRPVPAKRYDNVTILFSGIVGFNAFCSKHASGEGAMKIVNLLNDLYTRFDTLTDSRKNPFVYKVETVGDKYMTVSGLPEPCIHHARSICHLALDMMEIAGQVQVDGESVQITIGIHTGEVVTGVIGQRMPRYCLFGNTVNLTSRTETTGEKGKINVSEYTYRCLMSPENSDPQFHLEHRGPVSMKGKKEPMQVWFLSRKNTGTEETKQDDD
T1 sequence (Q02108 1-690): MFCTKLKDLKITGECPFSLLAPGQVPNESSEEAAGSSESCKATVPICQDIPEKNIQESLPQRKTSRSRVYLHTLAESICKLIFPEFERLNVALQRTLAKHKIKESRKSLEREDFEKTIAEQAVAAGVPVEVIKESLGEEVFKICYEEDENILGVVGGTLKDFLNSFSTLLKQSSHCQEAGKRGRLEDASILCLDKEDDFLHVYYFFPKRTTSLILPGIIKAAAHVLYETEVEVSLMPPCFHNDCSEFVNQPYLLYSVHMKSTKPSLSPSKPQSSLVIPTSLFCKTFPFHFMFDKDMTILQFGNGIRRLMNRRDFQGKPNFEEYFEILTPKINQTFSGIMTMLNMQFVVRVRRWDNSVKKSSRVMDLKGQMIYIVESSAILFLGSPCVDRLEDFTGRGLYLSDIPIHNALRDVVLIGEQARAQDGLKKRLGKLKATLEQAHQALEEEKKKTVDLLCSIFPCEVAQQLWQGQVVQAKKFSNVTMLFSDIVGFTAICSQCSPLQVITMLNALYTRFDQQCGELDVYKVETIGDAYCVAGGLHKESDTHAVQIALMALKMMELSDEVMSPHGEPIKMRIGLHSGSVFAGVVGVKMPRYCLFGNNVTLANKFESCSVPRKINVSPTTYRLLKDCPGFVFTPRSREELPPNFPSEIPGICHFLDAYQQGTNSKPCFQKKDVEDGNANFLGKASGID
Test: cGMP GloSensor cell-based assay, 384-well format
Details: Glo-sensor AbsEC50, HEK293 cells expressing GloSensor 40F cGMP; 10 μM DETA-NONOate; normalized to 30 μM Compound Y; compounds in Table IA
Text: Human embryonic kidney cells (HEK293) cells expressing GloSensor™ 40F cGMP (Part No: CS182801, Promega) were used to evaluate the activity of test compounds. The luminescent biosensors (engineered luciferase) that were incorporated into these cells detect cGMP formed by the compounds stimulating the sGC enzyme and emit luminescence.
cGMP GloSensor cells were maintained in Dulbecco's Modification of Eagle's Medium (DMEM) supplemented with fetal bovine serum (FBS, 10% final) and hygromycine (200 ug/ml). […] Cells were incubated overnight at 37° C. in a humidified chamber with 5% CO2. The next day, medium was removed and cells were replaced with 40 ul/well of GloSensor™, 2 mM (Promega Cat No E1291). Cells were treated for 90 minutes at 25° C. to allow the substrate to equilibrate in the cells. […] For endpoint SAR screening, data were collected after 55 min incubation at room temperature.
Data were fit using a 4-parameter fit (log(agonist) vs. response—variable slope) using GraphPad Prism Software v.5. n=2 for all compounds. […] Compounds failing to elicit a minimum response of 50% are reported as >30 μM or ND.

Q: `Fc1ccccc1Cn1nc(-c2ncn[nH]2)c2cccnc21` [Compound I-25] was tested. Which EC50 did it give?
A: 100 to 1000 nM

Same assay, conditions: HEK293 cells expressing GloSensor 40F cGMP; 10 μM DETA-NONOate; normalized to 30 μM Compound Y; compounds in Table IA; read-out: Glo-sensor AbsEC50

Q: How did the EC50 turn out when `Fc1ccccc1Cn1nc(-c2nc(C3CN(CC(F)(F)F)C3)n[nH]2)c2cccnc21` [Compound I-95, 1-(2-Fluorobenzyl)-3-(3-(1-(2,2,2-trifluoroethyl)azetidin-3-yl)-1H-1,2,4-triazol-5-yl)-1H-pyrazolo[3,4-b]pyridine] was run?
A: 100 to 1000 nM

Q: With `Fc1ccccc1Cn1nc(-c2nc(CCCCl)n[nH]2)c2cccnc21` [Compound I-69, 3-(3-(3-chloropropyl)-1H-1,2,4-triazol-5-yl)-1-(2-fluorobenzyl)-1H-pyrazolo[3,4-b]pyridine] as the compound, how does the EC50 read?
A: 100 to 1000 nM

Q: Which EC50 does the source give for `FC(F)(F)CCn1nc(-c2nc(C(F)(F)F)n[nH]2)c2cccnc21` [Compound I-7, 3-(3-(Trifluoromethyl)-1H-1,2,4-triazol-5-yl)-1-(3,3,3-trifluoropropyl)-1H-pyrazolo[3,4-b]pyridine] here?
A: > 1000 nM

Q: Which EC50 does the source give for `Fc1cc(F)cc(Cn2nc(-c3nc(C(F)(F)F)n[nH]3)c3cccnc32)c1` [Compound I-51, 1-(3,5-Difluorobenzyl)-3-(3-(trifluoromethyl)-1H-1,2,4-triazol-5-yl)-1H-pyrazolo[3,4-b]pyridine] here?
A: < 100 nM

Q: For `CC1(c2n[nH]c(-c3nn(Cc4ccccc4F)c4ncccc34)n2)COC1` [Compound I-70, 1-(2-fluorobenzyl)-3-(3-(3-methyloxetan-3-yl)-1H-1,2,4-triazol-5-yl)-1H-pyrazolo[3,4-b]pyridine], which EC50 is on record?
A: 100 to 1000 nM and > 1000 nM

Q: Which EC50 does the source give for `Fc1cccc(F)c1Cn1nc(-c2nc(C(F)(F)F)n[nH]2)c2cccnc21` [Compound I-42] here?
A: < 100 nM

Q: Which EC50 does the source give for `Fc1cc(F)cc(Cc2nn(-c3nc(C(F)F)n[nH]3)c3cccnc23)c1` [Compound I-123, 3-(3,5-Difluorobenzyl)-1-(3-(difluoromethyl)-1H-1,2,4-triazol-5-yl)-1H-pyrazolo[4,3-b]pyridine] here?
A: 100 to 1000 nM

Q: `NCc1n[nH]c(-c2nn(Cc3ccccc3F)c3ncccc23)n1` [Compound I-115, (5-(1-(2-fluorobenzyl)-1H-pyrazolo[3,4-b]pyridin-3-yl)-1H-1,2,4-triazol-3-yl)methanamine] was tested. Which EC50 did it give?
A: 100 to 1000 nM

Q: `C=COCc1n[nH]c(-c2nn(Cc3ccccc3F)c3ncccc23)n1` [Compound I-117] was tested. Which EC50 did it give?
A: 100 to 1000 nM

Q: How did the EC50 turn out when `Fc1ccccc1Cn1nc(-c2nc(C(F)(F)F)n[nH]2)c2ncccc21` [Compound I-35, 1-(2-Fluorobenzyl)-3-(3-(trifluoromethyl)-1H-1,2,4-triazol-5-yl)-1H-pyrazolo[4,3-b]pyridine] was run?
A: > 1000 nM

Q: With `FC(F)(F)c1n[nH]c(-c2nn(Cc3cncnc3)c3cc(Cl)ccc23)n1` [Compound I-16, 6-Chloro-1-(pyrimidin-5-ylmethyl)-3-(3-(trifluoromethyl)-1H-1,2,4-triazol-5-yl)-1H-indazole] as the compound, how does the EC50 read?
A: < 100 nM

Q: With `[2H]C([2H])([2H])c1n[nH]c(-c2nn(Cc3ccccc3F)c3ncccc23)n1` [Compound I-91, 1-(2-Fluorobenzyl)-3-(3-(methyl-d3)-1H-1,2,4-triazol-5-yl)-1H-pyrazolo[3,4-b]pyridine] as the compound, how does the EC50 read?
A: < 100 nM

Q: Which EC50 does the source give for `Fc1ccccc1Cn1nc(-c2nc(Cl)n[nH]2)c2cccnc21` [Compound I-47, 3-(3-Chloro-1H-1,2,4-triazol-5-yl)-1-(2-fluorobenzyl)-1H-pyrazolo[3,4-b]pyridine] here?
A: < 100 nM

Q: With `FC(F)(F)c1n[nH]c(-c2nn(CC(F)(F)C(F)(F)F)c3ncccc23)n1` [Compound I-19, 1-(2,2,3,3,3-Pentafluoropropyl)-3-(3-(trifluoromethyl)-1H-1,2,4-triazol-5-yl)-1H-pyrazolo[3,4-b]pyridine] as the compound, how does the EC50 read?
A: > 1000 nM

Q: Which EC50 does the source give for `FC(F)(F)c1n[nH]c(-c2nn(CCC(F)(F)C(F)(F)F)c3cc(Cl)ccc23)n1` [Compound I-3, 6-chloro-1-(3,3,4,4,4-pentafluorobutyl)-3-(3-(trifluoromethyl)-1H-1,2,4-triazol-5-yl)-1H-indazole] here?
A: 100 to 1000 nM

Q: With `C=C(C)c1n[nH]c(-c2nn(Cc3ccccc3F)c3ncccc23)n1` [Compound I-55] as the compound, how does the EC50 read?
A: 100 to 1000 nM

Q: With `CC(C)(C)OC(=O)NC1(c2n[nH]c(-c3nn(Cc4ccccc4F)c4ncccc34)n2)COC1` [Compound I-76, tert-Butyl (3-(5-(1-(2-fluorobenzyl)-1H-pyrazolo[3,4-b]pyridin-3-yl)-1H-1,2,4-triazol-3-yl)oxetan-3-yl)carbamate] as the compound, how does the EC50 read?
A: 100 to 1000 nM

Q: `CC1(c2n[nH]c(-c3nn(Cc4ccccc4F)c4ncccc34)n2)CC1(F)F` (centres unmarked) [Compound I-87, 3-(3-(2,2-Difluoro-1-methylcyclopropyl)-1H-1,2,4-triazol-5-yl)-1-(2-fluorobenzyl)-1H-pyrazolo[3,4-b]pyridine] was tested. Which EC50 did it give?
A: 100 to 1000 nM

Q: Which EC50 does the source give for `Fc1cccc(Cc2nn(-c3nc(C(F)(F)F)n[nH]3)c3cccnc23)c1` [Compound I-120, 3-(3-Fluorobenzyl)-1-(3-(trifluoromethyl)-1H-1,2,4-triazol-5-yl)-1H-pyrazolo[4,3-b]pyridine] here?
A: 100 to 1000 nM

Q: Which EC50 does the source give for `O=C(CC(F)(F)F)Nc1n[nH]c(-c2nn(Cc3ccccc3F)c3ncccc23)n1` [Compound I-126] here?
A: > 1000 nM

Q: `Cc1ncc(Cn2nc(-c3nc(C(F)(F)F)n[nH]3)c3ncccc32)cn1` [Compound I-38] was tested. Which EC50 did it give?
A: > 1000 nM

Q: With `Cc1ncc(Cn2nc(-c3nc(C(F)(F)F)n[nH]3)c3ccc(F)cc32)cn1` [Compound I-61, 6-Fluoro-1-((2-methylpyrimidin-5-yl)methyl)-3-(3-(trifluoromethyl)-1H-1,2,4-triazol-5-yl)-1H-indazole] as the compound, how does the EC50 read?
A: < 100 nM

Q: `Fc1cccnc1Cn1nc(-c2nc(C(F)(F)F)n[nH]2)c2cccnc21` [Compound I-13, 1-((3-Fluoropyridin-2-yl)methyl)-3-(3-(trifluoromethyl)-1H-1,2,4-triazol-5-yl)-1H-pyrazolo[3,4-b]pyridine] was tested. Which EC50 did it give?
A: 100 to 1000 nM

Q: `CC(F)(F)c1n[nH]c(-c2nn(Cc3ccccc3F)c3ncccc23)n1` [Compound I-36, 3-(3-(1,1-difluoroethyl)-1H-1,2,4-triazol-5-yl)-1-(2-fluorobenzyl)-1H-pyrazolo[3,4-b]pyridine] was tested. Which EC50 did it give?
A: < 100 nM

Same assay, conditions: HEK293 cells expressing GloSensor 40F cGMP; 10 μM DETA-NONOate; normalized to 30 μM Compound Y; compounds in Table IB; read-out: Glo-sensor Abs EC50

Q: How did the EC50 turn out when `Cc1ncc(Cc2nc(-c3nc(C(F)(F)F)n[nH]3)n3ccc(Cl)cc23)cn1` [Compound I-29, 7-Chloro-1-((2-methylpyrimidin-5-yl)methyl)-3-(3-(trifluoromethyl)-1H-1,2,4-triazol-5-yl)imidazo[1,5-a]pyridine] was run?
A: 100 to 1000 nM

Q: With `Fc1cc(F)c2c(Cc3cncnc3)nc(-c3nc(C(F)(F)F)n[nH]3)n2c1` [Compound I-28, 6,8-Difluoro-1-(pyrimidin-5-ylmethyl)-3-(3-(trifluoromethyl)-1H-1,2,4-triazol-5-yl)imidazo[1,5-a]pyridine] as the compound, how does the EC50 read?
A: < 100 nM

Q: With `Fc1ccccc1Cc1nc(-c2nc(C(F)(F)F)n[nH]2)n2ncccc12` [Compound I-24, 5-(2-Fluorobenzyl)-7-(3-(trifluoromethyl)-1H-1,2,4-triazol-5-yl)imidazo[1,5-b]pyridazine] as the compound, how does the EC50 read?
A: > 1000 nM

Q: `Cc1ncc(Cc2nc(-c3nc(C(F)(F)F)n[nH]3)n3cc(Cl)ccc23)cn1` [Compound I-34, 6-Chloro-1-((2-methylpyrimidin-5-yl)methyl)-3-(3-(trifluoromethyl)-1H-1,2,4-triazol-5-yl)imidazo[1,5-a]pyridine] was tested. Which EC50 did it give?
A: > 1000 nM
